Where “and” joins values, the source holds several entries; their conditions need not be identical. Equal entries are not always repeated.
How the values were obtained:
[1] = target: MCL-1 (Homo sapiens, UniProt Q07820); assay: Fluorescence polarization (FP) with Fluorescein-PUMA, MCL-1; format: binding
[2] = target: BCL-2 (Homo sapiens, UniProt P10415); assay: Isothermal titration calorimetry (ITC), BCL-2; conditions: binding to BCL-2
Protocol: The protein was dialyzed prior to use in 2 L of 25 mM HEPES, 150 mM NaCl, 5% glycerol (v/v), 0.5% MTG (v/v) at pH 7.4 for 3 hours at room temperature. The protein was dialyzed using a 3.5 K MWCO Slide-A-Lyzer™ cassette. The protein solution was recovered, spin-filtered through a […] frit. The filtered protein was quantified by UV absorbance at 280 nm using an extinction coefficient of 36440 M^-1cm^-1. 500 ml of dialysis buffer was retained (remainder used to rinse out SCHOT bottle) and degassed for a minimum of 30 mins under vacuum with constant stirring. […] The solutions were carefully matched to ensure same solvent and buffer conditions were present in both syringe and cell (this is to minimize heat of dilution effects). The final solution was the dialysis buffer plus 1% DMSO and 0.05% P20. The experiment was performed over 13 injections with stirring at 1000 rpm, gain setting low and at 25° C. Pure water was used in the reference cell. The first injection was 0.5 μl with a duration of 1 second with a gap of 150 seconds until the further 12 injections of 3.05 μl with a duration 6.1 seconds and a 240 second interval between injections. Data was analyzed using the vendor supplied software, PEAQ-ITC Analysis Software. The data model used was the single site model. The data shown is the average of 2 or 3 independent experiments.

[3] = tested on: Toledo xenograft; assay: Toledo xenograft efficacy; format: in vivo, mice; conditions: 200 mg/kg oral five times a week for 3 weeks, day 21
Protocol: Experiments were performed in SCID/beige female mice from Charles River Laboratories, Massachusetts, USA. Animals, approximately 7-8 weeks of age at the start of the treatment were allowed to acclimate in animal facility with access to food and water ad libitum for 3 days prior to manipulation. Animals were handled in accordance with IACUC regulations and guidelines for experiments performed in the USA and with European and French regulation for the protection of vertebrate animals for experiments performed in France. Animal well-being and behavior, including grooming and ambulation were monitored at least once a day. General health of mice was monitored and mortality recorded daily. Any moribund animals were sacrificed.
RS4;11 Acute Lymphoblastic Leukemia cell lines was obtained from ATCC. Toledo (Diffuse Large B-Cell Lymphoma) human cell lines were obtained internally through Bioresources and the Novartis-Cancer Cell Line Encyclopedia. Cells were free of Mycoplasma and murine viral contamination in the IMPACT VIII PCR assay panel (IDEXX RADIL, IDEXX laboratories INC, Westbrook, ME, USA). Cells used for subcutaneous implantation were cultured in RPMI plus 10% FBS at 37° C in a humidified atmosphere containing 5% carbon dioxide). […] Cells were resuspended in a 1:1 mixture of cold DPBS (Dulbecco's Phosphate-Buffered Saline) and Matrigel™ (Becton-Dickinson #354234) at a concentration of 3 × 10^7 cells/ml for Toledo cells, and of 1 × 10^7 cells/ml for RS4;11 cells.
For each experiment, female SCID/beige mice were implanted subcutaneously (right axillary region) with 3 × 10^6 Toledo or RS4;11 (1 × 10^6 cells for efficacy studies and 1 × 10^7 cells for pharmacodynamics studies) suspended in 1:1 mixture of cold DPBS and Matrigel™ in a total volume of 100 μl. Body weights were recorded and tumors were measured with digital calipers twice to three times a week. Tumor volume was calculated using the formula: length × width^2/2. Percent changes in body weights was calculated as (BWcurrent - BWinitial)/(BWinitial) × 100. Data is presented as percent body weight change from the day of treatment initiation.
(§1) When tumors reached approximately 200 mm^3 for efficacy studies or 300 mm^3 for pharmacodynamic studies, mice were randomized. […] Mice were treated via oral gavage at 10 ml/kg with the doses and schedules described in the figure.
For efficacy studies, percent treatment/control (T/C) values were calculated using the following formula: %T/C = 100 × ΔT/ΔC if ΔT > 0. Regression = 100 × ΔT/Tinitial if ΔT < 0 where: T = mean tumor burden of the drug-treated group on the final day of the study; ΔT = mean tumor burden of the drug-treated group on the final day of the study – mean tumor burden of the drug-treated group on initial day of dosing; Tinitial = mean tumor burden of the drug-treated group on initial day of dosing; C = mean tumor burden of the control group on the final day of the study; and ΔC = mean tumor burden of the control group on the final day of the study – mean tumor burden of the control group on initial day of dosing. If the tumor volume was less than 14 mm^3 for more than 3 consecutive measurements, animals were considered in complete regression (CR).

[4] = target: T1, BFL-1 (Homo sapiens, UniProt Q16548); assay: Fluorescence polarization (FP) with Fluorescein-PUMA, BFL-1; conditions: at 3E-05 M
T1 sequence (Q16548 1-175): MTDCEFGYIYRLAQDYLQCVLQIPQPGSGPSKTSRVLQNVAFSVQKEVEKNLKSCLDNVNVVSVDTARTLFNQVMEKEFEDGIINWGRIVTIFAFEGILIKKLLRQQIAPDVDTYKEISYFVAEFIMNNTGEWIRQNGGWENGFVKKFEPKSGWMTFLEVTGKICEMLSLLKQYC
Protocol: Final concentrations of MCL-1, BFL-1, BCL-2 and BCL-XL proteins were 10, 10, 10 and 20 nM respectively. The assay plates were incubated for 2 hours at room temperature and the FP was measured on a Synergy 2 reader (Ex. 528 nm, Em. 640 nm, Cut-off 510 nm). The binding of increasing doses of compound was expressed as a percentage reduction in mP compared to the window established between ‘DMSO only’ and ‘total inhibition’ control (30 μM PUMA). […] The KI was subsequently calculated as previously described [42].

[5] = tested on: BCL-2-dependent FL5.12 cells; assay: Apoptosis (annexin V/PI) in FL5.12 cells expressing BCL-2 upon IL-3 withdrawal; format: cell-based, murine; conditions: 24 h upon IL-3 withdrawal
[6] = tested on: isolated platelets from healthy volunteers; assay: Apoptosis (annexin V) in isolated platelets; format: cell-based; conditions: Homo sapiens, Platelet; 4 healthy donors, 3 h; read-out: EC50 apoptosis (PS+) in isolated platelets
Protocol: Peripheral blood samples from CLL patients were obtained with informed patient consent and local ethical committee approval (UHL-09723). […] Interphase fluorescence in situ hybridization (FISH) was performed for detection of 17p13 deletion. Mantle cell lymphoma (MCL) primary cells were obtained after informed consent from MCL patients treated at the department of clinical hematology from the University Hospital of Nantes, France. Peripheral MCL cells from blood or pleural effusion, were purified after Ficoll-Hypaque separation with immuno-magnetic anti-CD19 beads (Miltenyi, Paris, France). Primary cells were cultured in RPMI-1640 supplemented with 10% FCS and 2 mM glutamine. Human platelets were isolated from citrate blood donated by healthy volunteers. Washed platelets were cultured in Hepes-buffered saline (HBS, 10 mM Hepes, 150 mM NaCl, 5 mM KCl, 1 mM MgSO4, pH 7.4).
EC50 values were calculated using GraphPadPrism (non-linear fit, sigmoidal dose response, variable slope). […] Cell death was assessed in the CD19+ primary MCL cells by annexinV-FITC staining combined with an analysis of altered cellular morphology (lower FCS). Fluorescence was analyzed on FACSCalibur.

[7] = tested on: BCL-XL-dependent FL5.12 cells; assay: Apoptosis (annexin V/PI) in FL5.12 cells expressing BCL-XL upon IL-3 withdrawal; conditions: 24 h upon IL-3 withdrawal
[8] = tested on: RS4;11 cell line; assay: CellTiter-Glo cell viability, RS4;11; format: cell-based; conditions: Homo sapiens, 72 h of treatment
Protocol: (§2) Cells were seeded into 96-well plates and treated at 8 points with 1:2 serial dilution of compounds. Cell viability was assessed and assayed for viability using CellTiter-Glo reagent (Promega) following the manufacturer's instructions. Plates were read using Tecan luminescence plate reader. Results were normalized to the viability of cells without compounds (control wells). The IC50 values were calculated using nonlinear regression algorithms in XCell software.

[9] = tested on: H146 cell line; assay: CellTiter-Glo cell viability, H146; format: cell-based; conditions: Homo sapiens, NCI-H146; 72 h of treatment
Protocol: as §2

[10] = target: BCL-2/BAX complex (Homo sapiens, UniProt P10415); assay: Co-immunoprecipitation in BCL-2-overexpressing HeLa cells; format: cell-based; conditions: 2 h
BCL-2/BAX complex, sequence (P10415 whole entry, one chain of several): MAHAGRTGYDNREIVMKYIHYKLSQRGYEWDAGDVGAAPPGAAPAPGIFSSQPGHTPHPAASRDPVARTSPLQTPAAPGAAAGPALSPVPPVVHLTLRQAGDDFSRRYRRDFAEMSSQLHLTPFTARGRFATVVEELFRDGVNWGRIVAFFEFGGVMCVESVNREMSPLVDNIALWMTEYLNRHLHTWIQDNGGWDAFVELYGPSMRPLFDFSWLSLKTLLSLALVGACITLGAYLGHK

[11] = tested on: caspase-3 activity in RS4;11 tumor xenografts; assay: Caspase-3 activity in RS4;11 tumor xenografts; format: in vivo; conditions: 100 mg/kg single oral gavage, 16 h post dosing, SCID mice
Protocol: Body weights were recorded and tumors were measured with digital calipers twice to three times a week. Tumor volume was calculated using the formula: length × width^2/2. Percent changes in body weights was calculated as (BWcurrent - BWinitial)/(BWinitial) × 100. Data is presented as percent body weight change from the day of treatment initiation. When tumors reached approximately 200 mm^3 for efficacy studies or 300 mm^3 for pharmacodynamic studies, mice were randomized. […] Mice were treated via oral gavage at 10 ml/kg with the doses and schedules described in the figure. For pharmacodynamic studies, blood and tumors were removed 16 h post dosing and immediately snap-frozen. Total proteins were extracted from the tumors and caspase-3 activity was assessed in triplicate using CaspACE® Assay System (Promega). Platelet cell counts were determined 16 hours post dosing using Coulter AcT diff (Beckman).

[12] = tested on: platelets; assay: Platelet counts in RS4;11-bearing mice; format: in vivo; conditions: 100 mg/kg single oral dose, 16 h post dosing
Protocol: as §1
For pharmacodynamic studies, blood and tumors were removed 16 h post dosing and immediately snap-frozen. Total proteins were extracted from the tumors and caspase-3 activity was assessed in triplicate using CaspACE® Assay System (Promega). Platelet cell counts were determined 16 hours post dosing using Coulter AcT diff (Beckman).

[13] = target: BCL-XL/BAX complex (Homo sapiens, UniProt Q07817); assay: Co-immunoprecipitation in BCL-XL-overexpressing HeLa cells; conditions: 2 h
BCL-XL/BAX complex, sequence (Q07817 whole entry, one chain of several): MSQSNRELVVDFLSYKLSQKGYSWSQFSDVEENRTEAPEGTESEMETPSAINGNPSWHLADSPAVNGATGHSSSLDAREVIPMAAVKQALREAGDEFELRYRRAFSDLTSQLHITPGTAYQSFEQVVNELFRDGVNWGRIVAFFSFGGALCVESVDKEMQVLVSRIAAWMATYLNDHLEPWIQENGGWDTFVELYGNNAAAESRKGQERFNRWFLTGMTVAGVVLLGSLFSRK
Protocol: Effecten reagent (Qiagen), with 3xFlag-tagged BCL-XL
24 h later, transfected Hela and RS4;11
were put under neomycin selection (800 µg/ml, Invitrogen) were then subjected to immunoprecipitation with anti-

BCL-2, sequence (P10415 whole entry): as the sequence (P10415 whole entry, one chain of several) above
MCL-1, sequence (Q07820 whole entry): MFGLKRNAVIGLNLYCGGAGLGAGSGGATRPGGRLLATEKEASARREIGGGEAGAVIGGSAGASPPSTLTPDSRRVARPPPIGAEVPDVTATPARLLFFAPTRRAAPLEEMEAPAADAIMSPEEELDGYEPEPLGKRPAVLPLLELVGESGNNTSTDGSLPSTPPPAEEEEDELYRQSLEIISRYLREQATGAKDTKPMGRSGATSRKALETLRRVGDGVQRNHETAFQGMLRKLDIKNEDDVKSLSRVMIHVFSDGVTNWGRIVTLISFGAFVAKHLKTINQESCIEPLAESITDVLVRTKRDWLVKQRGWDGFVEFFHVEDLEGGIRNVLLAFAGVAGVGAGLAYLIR

| FP_MCL-1, % of inhibition at the maximal tested concentration ([1]; at 30E-06 M) | N (sites), stoichiometry [2] | ∆H (enthalpy delta) [2] | FP_BFL-1, % of inhibition at the maximal tested concentration [4] | FP_MCL-1, % of inhibition at the maximal tested concentration ([1]; at 10E-06 M) | IC50 [8] | IC50 [9] | platelet counts in vivo [12] | SMILES | % T/C [3] | Mean TV change ([3]; mean ± s.e.m.) | apoptosis induction (PS+ cells) in BCL-2-dependent FL5.12 cells [5] | EC50 [6] | apoptosis induction (PS+ cells) in BCL-XL-dependent FL5.12 cells [7] | effect on BCL-2/BAX complex in BCL-2-overexpressing HeLa cells [10] | caspase-3 activity in tumor, times higher than in vehicle-treated animals [11] | effect on BCL-XL/BAX complex in BCL-XL-overexpressing HeLa cells [13] |
| --- | --- | --- | --- | --- | --- | --- | --- | --- | --- | --- | --- | --- | --- | --- | --- | --- |
| 14.9% and 11.8% | 1.1 sites | –12.1 kcal/mol | 6.4%@3E-05 | – | – | – | – | CC1(C)CCC(CN2CCN(c3ccc(C(=O)NS(=O)(=O)c4ccc(NCC5CCOCC5)c([N+](=O)[O-])c4)c(Oc4cnc5[nH]ccc5c4)c3)CC2)=C(c2ccc(Cl)cc2)C1 [ABT-199, reference compound] | 6 % T/C | 104.44 ± 70.31 mm3 | – | – | – | – | – | – |
| – | – | – | – | – | – | – | – | CN(C)CC[C@H](CSc1ccccc1)Nc1ccc(S(=O)(=O)NC(=O)c2ccc(N3CCN(Cc4ccccc4-c4ccc(Cl)cc4)CC3)cc2)cc1[N+](=O)[O-] [ABT-737, reference compound] | – | – | efficiently induced apoptosis | 30 nM | efficiently induced apoptosis | – | – | – |
| – | 0.8 sites | –13.1 kcal/mol | – | 9.4%@10E-06 | 41.5 nM | 49.7 nM | strong decrease of platelet counts | CC1(C)CCC(c2ccc(Cl)cc2)=C(CN2CCN(c3ccc(C(=O)NS(=O)(=O)c4ccc(N[C@H](CCN5CCOCC5)CSc5ccccc5)c(S(=O)(=O)C(F)(F)F)c4)cc3)CC2)C1 [ABT-263, reference compound] | – | – | – | – | – | disrupt both BCL-2/BAX and BCL-XL/BAX complexes | about 20 times | disrupt both BCL-2/BAX and BCL-XL/BAX complexes |

From PMC5929447 (Oncotarget, 2018)
